Measured values: ChEMBL document CHEMBL1201862, “PubChem BioAssay data set” (2004)
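How tested: cells in 96-well plates exposed to compound for 48 hours at five concentrations. The concentration for 50% growth inhibition is given as GI50.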 Calls of active or inactive are those of the source. Rule as the data show it: active = GI50 up to about 1.1 µM and inactive = higher.

Legend:
Assay in all cases: NCI-60 cell line screen, 48 h
U-251 = system: U-251
OVCAR-8 = system: OVCAR-8
RXF 393 = system: RXF 393
HCC 2998 = system: HCC 2998
MOLT-4 = system: MOLT-4
SNB-19 = system: SNB-19
EKVX = system: EKVX
RXF 631 = system: RXF 631
SK-MEL-28 = system: SK-MEL-28
COLO 205 = system: COLO 205
SN12C = system: SN12C
SF-268 = system: SF-268
UACC-62 = system: UACC-62
HOP-92 = system: HOP-92
SK-MEL-2 = system: SK-MEL-2
A549 = system: A549
SF-295 = system: SF-295
OVCAR-3 = system: OVCAR-3
KM12 = system: KM12
UACC-257 = system: UACC-257
DLD-1 = system: DLD-1
HOP-62 = system: HOP-62
HT-29 = system: HT-29
Malme-3M = system: Malme-3M
LXFL 529 = system: LXFL 529
SW-620 = system: SW-620
TK-10 = system: TK-10
IGROV-1 = system: IGROV-1
ACHN = system: ACHN
SF-539 = system: SF-539
XF498 = system: XF498
M14 = system: M14
SNB-78 = system: SNB-78
UO-31 = system: UO-31
HL-60 = system: HL-60
K562 = system: K562
HCT-116 = system: HCT-116
DMS-273 = system: DMS-273
CCRF-CEM = system: CCRF-CEM
SK-MEL-5 = system: SK-MEL-5
OVCAR-4 = system: OVCAR-4
M19-MEL = system: M19-MEL
NCI-H23 = system: NCI-H23
NCI-H522 = system: NCI-H522
RPMI-8226 = system: RPMI-8226
HCT-15 = system: HCT-15
KM-20L2 = system: KM-20L2
NCI-H460 = system: NCI-H460
786-0 = system: 786-0
SNB-75 = system: SNB-75
OVCAR-5 = system: OVCAR-5
BT-549 = system: BT-549
MDA-N = system: MDA-N
MDA-MB-231 = system: MDA-MB-231
SK-OV-3 = system: SK-OV-3
HOP-18 = system: HOP-18
SR = system: SR
MCF7 = system: MCF7
PC-3 = system: PC-3
DU-145 = system: DU-145
NCI/ADR-RES = system: NCI/ADR-RES
T47D = system: T47D

O=C1CCC(=O)N1CNc1cccc(NCN2C(=O)CCC2=O)c1
GI50 (U-251): > 100 µM (inactive)
GI50 (OVCAR-8): > 100 µM (inactive)
GI50 (RXF 393): > 100 µM (inactive)
GI50 (HCC 2998): > 100 µM (inactive)
GI50 (MOLT-4): 52.6 µM (inactive)
GI50 (SNB-19): > 100 µM (inactive)
GI50 (EKVX): > 100 µM (inactive)
GI50 (RXF 631): > 100 µM (inactive)
GI50 (SK-MEL-28): > 100 µM (inactive)
GI50 (COLO 205): > 100 µM (inactive)
GI50 (SN12C): > 100 µM (inactive)
GI50 (SF-268): 70 µM (inactive)
GI50 (UACC-62): 48.5 µM (inactive)
GI50 (HOP-92): > 100 µM (inactive)
GI50 (SK-MEL-2): > 100 µM (inactive)
GI50 (A549): > 100 µM (inactive)
GI50 (SF-295): > 100 µM (inactive)
GI50 (OVCAR-3): > 100 µM (inactive)
GI50 (KM12): > 100 µM (inactive)
GI50 (UACC-257): 71.6 µM (inactive)
GI50 (DLD-1): > 100 µM (inactive)
GI50 (HOP-62): > 100 µM (inactive)
GI50 (HT-29): > 100 µM (inactive)
GI50 (Malme-3M): > 100 µM (inactive)
GI50 (LXFL 529): 56.8 µM (inactive)
GI50 (SW-620): > 100 µM (inactive)
GI50 (TK-10): > 100 µM (inactive)
GI50 (IGROV-1): 87.9 µM (inactive)
GI50 (ACHN): 71.4 µM (inactive)
GI50 (SF-539): > 100 µM (inactive)
GI50 (XF498): > 100 µM (inactive)
GI50 (M14): > 100 µM (inactive)
GI50 (SNB-78): > 100 µM (inactive)
GI50 (UO-31): > 100 µM (inactive)
GI50 (HL-60): 20.1 µM (inactive)
GI50 (K562): 45.6 µM (inactive)
GI50 (HCT-116): 64.3 µM (inactive)
GI50 (DMS-273): 61.1 µM (inactive)
GI50 (CCRF-CEM): 29.6 µM (inactive)
GI50 (SK-MEL-5): > 100 µM (inactive)
GI50 (OVCAR-4): > 100 µM (inactive)
GI50 (M19-MEL): > 100 µM (inactive)
GI50 (NCI-H23): > 100 µM (inactive)
GI50 (NCI-H522): > 100 µM (inactive)
GI50 (RPMI-8226): 17.3 µM (inactive)
GI50 (HCT-15): 61 µM
GI50 (KM-20L2): 11 µM (inactive)
GI50 (NCI-H460): > 100 µM (inactive)
GI50 (786-0): > 100 µM (inactive)
GI50 (SNB-75): 12.9 µM (inactive)
GI50 (OVCAR-5): > 100 µM (inactive)

COc1cccc2c1C(=O)c1c(O)c3c(c(O)c1C2=O)C[C@@](O)(C(=O)CO)C[C@@H]3OC1CC(N)CC(C)O1 (some centres undefined)
GI50 (BT-549): 0.0283 µM (active)
GI50 (HCC 2998): 0.0706 µM (active)
GI50 (EKVX): 0.0847 µM (active)
GI50 (RXF 631): 0.0301 µM (active)
GI50 (COLO 205): 0.042 µM (active)
GI50 (SN12C): 0.0299 µM (active)
GI50 (SF-268): 0.0451 µM (active)
GI50 (UACC-62): 0.0254 µM (active)
GI50 (HOP-92): 0.0416 µM (active)
GI50 (SF-295): 0.0239 µM (active)
GI50 (OVCAR-3): 0.0547 µM (active)
GI50 (MDA-N): 0.0955 µM (active)
GI50 (MDA-MB-231): 0.0612 µM (active)
GI50 (UACC-257): 0.051 µM (active)
GI50 (SK-OV-3): 0.0521 µM (active)
GI50 (DLD-1): 0.092 µM (active)
GI50 (HOP-62): 0.0221 µM (active)
GI50 (HT-29): 0.035 µM (active)
GI50 (Malme-3M): 0.0284 µM (active)
GI50 (LXFL 529): 0.0462 µM (active)
GI50 (M14): 0.0803 µM (active)
GI50 (HOP-18): 0.0348 µM (active)
GI50 (SNB-78): 0.128 µM (active)
GI50 (SR): 0.00266 µM (active)
GI50 (CCRF-CEM): 0.0267 µM (active)
GI50 (SK-MEL-5): 0.0371 µM (active)
GI50 (OVCAR-4): 0.046 µM (active)
GI50 (M19-MEL): 0.0314 µM (active)
GI50 (NCI-H522): 0.038 µM (active)
GI50 (MCF7): 0.024 µM (active)
GI50 (KM-20L2): 0.0695 µM (active)
GI50 (PC-3): 0.027 µM (active)
GI50 (DU-145): 0.0267 µM (active)
GI50 (786-0): 0.0247 µM (active)
GI50 (NCI/ADR-RES): 3.67 µM (inactive)
GI50 (SNB-75): 0.0402 µM (active)
GI50 (OVCAR-5): 0.074 µM (active)
GI50 (T47D): 0.0233 µM (active)
